Where a name gives a salt, the structure may show the parent alone.

This experiment has as its target CRBN-DDB1 (Homo sapiens (Human), UniProt Q96SW2). Put plainly: CRBN-DDB1 fluorescence polarization (FP) binding assay. To be noted: displacement of Thalidomide-Alexa Fluor or Pomalidomide-fluorescein probe. Here is the method: Measuring compound ligand binding to CRBN-DDB1 was carried out using an established sensitive and quantitative in vitro fluorescence polarization (FP) based binding assay. […] Compounds were dispensed from serially diluted DMSO stock into black 384-well compatible fluorescence polarization plates using an Echo acoustic dispenser. Compound binding to CRBN-DDB1 was measured by displacement of either a (−)-Thalidomide-Alexa Fluor® or Pomalidomide-fluorescein conjugated probe dye. […] Matching control wells excluding CRBN-DDB1 were used to correct for background fluorescence. Plates were read on an Envision plate reader with appropriate FP filter sets. The corrected S (perpendicular) and P (parallel) values were used to calculate fluorescence polarization (FP) with the following equation: FP=1000*(S−G*P)/(S+G*P).
On the technique in general: In fluorescence polarisation assays a small probe gives low polarisation when free and higher when bound to something large.

Sequence of CRBN-DDB1 (Q96SW2 whole entry): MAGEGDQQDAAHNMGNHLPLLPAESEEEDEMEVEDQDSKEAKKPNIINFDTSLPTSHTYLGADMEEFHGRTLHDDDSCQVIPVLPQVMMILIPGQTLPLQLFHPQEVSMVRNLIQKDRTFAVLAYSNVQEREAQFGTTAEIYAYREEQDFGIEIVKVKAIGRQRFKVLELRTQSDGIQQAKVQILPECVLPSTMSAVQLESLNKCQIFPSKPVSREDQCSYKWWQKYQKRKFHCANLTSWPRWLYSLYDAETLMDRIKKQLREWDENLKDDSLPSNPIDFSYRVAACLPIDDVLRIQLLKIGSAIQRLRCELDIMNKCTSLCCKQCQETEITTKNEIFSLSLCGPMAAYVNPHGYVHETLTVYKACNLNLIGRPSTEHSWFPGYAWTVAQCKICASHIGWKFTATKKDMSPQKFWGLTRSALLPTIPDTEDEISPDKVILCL
Sequence of CRBN-DDB1 (Q16531 whole entry partner): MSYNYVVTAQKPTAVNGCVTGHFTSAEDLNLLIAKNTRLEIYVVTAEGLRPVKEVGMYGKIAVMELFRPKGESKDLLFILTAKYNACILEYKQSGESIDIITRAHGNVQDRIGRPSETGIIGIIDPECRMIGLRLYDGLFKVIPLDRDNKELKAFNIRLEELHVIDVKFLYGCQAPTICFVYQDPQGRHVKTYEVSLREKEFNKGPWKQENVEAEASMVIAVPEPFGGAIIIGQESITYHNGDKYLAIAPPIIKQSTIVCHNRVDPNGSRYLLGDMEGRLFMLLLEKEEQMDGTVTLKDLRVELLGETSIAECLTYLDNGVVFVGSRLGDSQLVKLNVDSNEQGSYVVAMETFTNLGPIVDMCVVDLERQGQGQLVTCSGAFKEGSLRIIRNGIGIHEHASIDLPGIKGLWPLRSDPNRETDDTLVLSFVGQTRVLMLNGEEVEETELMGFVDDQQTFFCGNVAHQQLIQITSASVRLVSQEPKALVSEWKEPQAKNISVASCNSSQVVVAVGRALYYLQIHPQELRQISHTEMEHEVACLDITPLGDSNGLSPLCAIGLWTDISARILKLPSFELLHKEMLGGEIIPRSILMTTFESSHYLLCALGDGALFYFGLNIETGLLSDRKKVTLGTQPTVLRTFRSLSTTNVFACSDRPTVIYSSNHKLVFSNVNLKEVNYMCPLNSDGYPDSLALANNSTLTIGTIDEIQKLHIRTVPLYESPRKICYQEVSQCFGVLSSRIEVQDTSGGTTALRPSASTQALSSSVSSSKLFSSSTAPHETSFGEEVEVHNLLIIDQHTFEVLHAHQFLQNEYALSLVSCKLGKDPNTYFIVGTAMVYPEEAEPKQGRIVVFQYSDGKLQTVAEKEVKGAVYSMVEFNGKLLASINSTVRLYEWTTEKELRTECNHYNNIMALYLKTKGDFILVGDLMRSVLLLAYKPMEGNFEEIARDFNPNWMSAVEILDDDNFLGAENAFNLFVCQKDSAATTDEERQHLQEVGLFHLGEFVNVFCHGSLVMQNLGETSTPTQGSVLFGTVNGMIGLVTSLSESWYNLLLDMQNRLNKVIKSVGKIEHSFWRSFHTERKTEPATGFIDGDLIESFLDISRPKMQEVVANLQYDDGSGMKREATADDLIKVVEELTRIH

By Kd is commonly meant a measure of binding affinity in units of concentration. Read a high Kd as lower affinity. For `Cn1nc([C@@H]2CCC(=O)NC2=O)c2ccccc21` [Compound 38], the dissociation constant (Kd) was < 10 µM.
In the case of `CC1(c2ccccc2)CCC(=O)NC1=O` (stereo not drawn) [Compound 8, 3-Methyl-3-phenylpiperidine-2,6-dione], the Kd was > 30 µM.
With `Cn1nc(C2CCC(=O)NC2=O)c2ccc(N)cc21` (stereo not drawn) [Compound 51, 3-(6-amino-1-methyl-indazol-3-yl)piperidine-2,6-dione] the figure was 50 to 100 µM; with `O=C1CCC(c2cn(-c3ccccc3)cn2)C(=O)N1` (stereo not drawn) [Compound 64, 3-(1-phenyl-1H-imidazol-4-yl)piperidine-2,6-dione], 10 to 50 µM.
To `O=C1NC(=O)C2(c3ccc([N+](=O)[O-])cc3)CC12` (stereo not drawn) [Compound 3, 1-(4-Nitrophenyl)-3-azabicyclo[3.1.0]hexane-2,4-dione] belongs > 100 µM.
As to `Cn1cc(C2CCC(=O)NC2=O)nn1` (stereo not drawn) [Compound 26, 3-(1-Methyl-1H-[1,2,3]triazol-4-yl)-piperidine-2,6-dione], the Kd lay in the range of 50 to 100 µM.
Consider `COc1ccccc1N(C)C(=O)C1CCC(=O)NC1=O` (stereo not drawn) [Compound 19], for which the Kd was > 100 µM.
With `O=C1CCC(C(=O)Nc2ccccc2F)C(=O)N1` (stereo not drawn) [Compound 18] the figure was > 100 µM; with `Cn1cccc(C2CCC(=O)NC2=O)c1=O` (stereo not drawn) [Compound 59, 3-(1-methyl-2-oxo-1,2-dihydropyridin-3-yl)piperidine-2,6-dione], 50 to 100 µM; with `CN(C)CC(=O)Nc1ccc(C23CC2C(=O)NC3=O)cc1` (stereo not drawn) [Compound 5, 2-(dimethylamino)-N-(4-(2,4-dioxo-3-azabicyclo[3.1.0]hexan-1-yl)phenyl)acetamide], > 100 µM.
As to `Cn1c(CC2CCC(=O)NC2=O)nc2ccccc21` (stereo not drawn) [Compound 12], the Kd is 50 to 100 µM.
With `O=C1CCC(C(=O)Nc2ccccn2)C(=O)N1` (stereo not drawn) [Compound 17] the figure was > 100 µM; with `O=C1CCC(CC(=O)N2CCNCC2)C(=O)N1` (stereo not drawn) [Compound 45, 3-(2-Oxo-2-piperazin-1-yl-ethyl)-piperidine-2,6-dione hydrochloride Salt], 50 to 100 µM.
With `Cc1nc2cc(C3CCC(=O)NC3=O)ccc2s1` (stereo not drawn) [Compound 48, 3-(2-Methyl-benzothiazol-5-yl)-piperidine-2,6-dione] the figure was < 10 µM; with `Cn1cc(CC2CCC(=O)NC2=O)nn1` (stereo not drawn) [Compound 25, 3-(1-Methyl-1H-[1,2,3]triazol-4-ylmethyl)-piperidine-2,6-dione], 50 to 100 µM; with `Cc1ccccc1C1CCC(=O)NC1=O` (stereo not drawn) [Compound 32, 3-(o-tolyl)piperidine-2,6-dione], 10 to 50 µM.
Take `CC1(c2ccc(N)cc2)CCC(=O)NC1=O` (stereo not drawn) [Compound 10, 3-(4-Aminophenyl)-3-methylpiperidine-2,6-dione]: the Kd is > 30 µM.
With `Cn1nc(C2CCC(=O)NC2=O)c2ccc(NC3CCN(C(=O)OC(C)(C)C)CC3)cc21` (stereo not drawn) [Compound 52, tert-Butyl 4-((3-(2,6-dioxopiperidin-3-yl)-1-methyl-1H-indazol-6-yl)amino)piperidine-1-carboxylate], the Kd was < 10 µM.
For `Cn1cc(C2CCC(=O)NC2=O)c2ccccc21` (stereo not drawn) [Compound 29, 3-(1-Methyl-1H-indol-3-yl)-piperidine-2,6-dione], the dissociation constant (Kd) was < 10 µM.
On to `Cn1nc(C2CCC(=O)NC2=O)c2ccccc21` (stereo not drawn) [Compound 37, 3-(1-Methyl-1H-indazol-3-yl)-piperidine-2,6-dione], for which the Kd was < 10 µM.
With `Cn1nc(C2CCC(=O)NC2=O)c2ccc(NC3CCNCC3)cc21` (stereo not drawn) [Compound 53, 3-(1-Methyl-6-(piperidin-4-ylamino)-1H-indazol-3-yl)piperidine-2,6-dione hydrochloride] the figure was < 10 µM; with `CC(=O)Nc1ccc(C23CC2C(=O)NC3=O)cc1` (stereo not drawn) [Compound 6, N-(4-(2,4-dioxo-3-azabicyclo[3.1.0]hexan-1-yl)phenyl)acetamide], > 100 µM; with `CC(C)(C)OC(=O)N1Cc2ccc(C3CCC(=O)NC3=O)cc2C1` (stereo not drawn) [Compound 54, 5-(2,6-Dioxo-piperidin-3-yl)-1,3-dihydro-isoindole-2-carboxylic acid tert-butyl ester], 10 to 50 µM.
Regarding `O=C1NC(=O)C2(c3ccccc3)CC12` (stereo not drawn) [Compound 1, 1-phenyl-3-azabicyclo[3.1.0]hexane-2,4-dione], the Kd was > 100 µM.
Molecule `COc1cccc(C2CCC(=O)NC2=O)n1` (stereo not drawn) [Compound 34, 3-(6-methoxypyridin-2-yl)piperidine-2,6-dione] yielded a Kd of 10 to 50 µM.
To `O=C1CCC(C(=O)Nc2cccnc2)C(=O)N1` (stereo not drawn) [Compound 16] belongs > 100 µM; to `Cn1c(=O)c(C2CCC(=O)NC2=O)cc2ccccc21` (stereo not drawn) [Compound 40, 3-(1-Methyl-2-oxo-1,2-dihydro-quinolin-3-yl)-piperidine-2,6-dione], < 10 µM; to `O=C1CCC(Cc2ccccc2)C(=O)N1` (stereo not drawn) [Compound 50, 3-benzylpiperidine-2,6-dione], 10 to 50 µM.
For the molecule `Cn1nc(-c2ccccc2)cc1C1CCC(=O)NC1=O` (stereo not drawn) [Compound 31, 3-(1-methyl-3-phenyl-1H-pyrazol-5-yl)piperidine-2,6-dione], the Kd fell in the range of 50 to 100 µM.
To `CN1Cc2ccc(C3CCC(=O)NC3=O)cc2C1=O` (stereo not drawn) [Compound 41, 3-(2-Methyl-3-oxo-2,3-dihydro-1H-isoindol-5-yl)-piperidine-2,6-dione] belongs 10 to 50 µM.
To `Cn1cnc2c(C3CCC(=O)NC3=O)cccc21` (stereo not drawn) [Compound 36, 3-(1-methyl-1H-benzo[d]imidazol-4-yl)piperidine-2,6-dione] belongs 10 to 50 µM.
Turning to `Nc1ccc(C23CC2C(=O)NC3=O)cc1` (stereo not drawn) [Compound 4, 1-(4-Aminophenyl)-3-azabicyclo[3.1.0]hexane-2,4-dione], the Kd was > 30 µM.
To `Cn1nc(CC2CCC(=O)NC2=O)c2ccccc21` (stereo not drawn) [Compound 13, 3-((1-methyl-1H-indazol-3-yl)methyl)piperidine-2,6-dione] belongs > 100 µM.
To `Cn1c(C2CCC(=O)NC2=O)nc2ccccc21` (stereo not drawn) [Compound 62, 3-(1-methyl-1H-benzo[d]imidazol-2-yl)piperidine-2,6-dione] belongs 50 to 100 µM.
To `O=C1CCC(CC(=O)Nc2ccccc2F)C(=O)N1` (stereo not drawn) [Compound 23, 2-(2,6-Dioxo-piperidin-3-yl)-N-(2-fluoro-phenyl)-acetamide] belongs 50 to 100 µM; to `CC1(c2ccccc2N)CCC(=O)NC1=O` (stereo not drawn) [Compound 11, 3-(2-aminophenyl)-3-methylpiperidine-2,6-dione], > 30 µM; to `O=C1CCC(c2ccc3c(c2)CNC3)C(=O)N1` (stereo not drawn) [Compound 55, 3-(Isoindolin-5-yl)piperidine-2,6-dione hydrochloride], 50 to 100 µM.
The molecule `O=C1CCC(Cc2cn(-c3ccccc3)nn2)C(=O)N1` (stereo not drawn) [Compound 24, 3-(1-Phenyl-1H-[1,2,3]triazol-4-ylmethyl)-piperidine-2,6-dione] yielded an equilibrium dissociation constant (Kd) of 10 to 50 µM.
Regarding `CC(C)(C)OC(=O)N1Cc2cccc(C3CCC(=O)NC3=O)c2C1` (stereo not drawn) [Compound 42, 4-(2,6-dioxo-piperidin-3-yl)-1,3-dihydro-isoindole-2-carboxylic acid tert-butyl ester], the Kd was in the range of 10 to 50 µM.
`Cn1ccc(C2CCC(=O)NC2=O)n1` (stereo not drawn) [Compound 33, 3-(1-methyl-1H-pyrazol-3-yl)piperidine-2,6-dione]: the Kd fell in the range of 10 to 50 µM.
Turning to `CN(C(=O)C1CCC(=O)NC1=O)c1ccccc1` (stereo not drawn) [Compound 22], the Kd was > 100 µM.
With `Cn1nc(C2CCC(=O)NC2=O)cc1-c1ccccc1` (stereo not drawn) [Compound 30, 3-(1-methyl-5-phenyl-1H-pyrazol-3-yl)-piperidine-2,6-dione] the figure was < 10 µM; with `O=C1CCC(c2nccc3ccccc23)C(=O)N1` (stereo not drawn) [Compound 58, 3-(Isoquinolin-1-yl)piperidine-2,6-dione], 10 to 50 µM.
To `CC(C)(C)OC(=O)N1CCN(C(=O)CC2CCC(=O)NC2=O)CC1` (stereo not drawn) [Compound 44, 4-[2-(2,6-Dioxo-piperidin-3-yl)-acetyl]-piperazine-1-carboxylic acid tert-butyl ester] belongs 50 to 100 µM.
On to `Cc1nc(C2CCC(=O)NC2=O)n2ccccc12` (stereo not drawn) [Compound 61, 3-(1-methylimidazo[1,5-a]pyridin-3-yl)piperidine-2,6-dione], for which the Kd was < 10 µM.
With `O=C1CCC(c2cn(-c3ccccc3)nn2)C(=O)N1` (stereo not drawn) [Compound 27, 3-(1-Phenyl-1H-[1,2,3]triazol-4-yl)-piperidine-2,6-dione] the figure was 10 to 50 µM.
With `CN(C(=O)C1CCC(=O)NC1=O)c1ccccc1F` (stereo not drawn) [Compound 21] the figure was 50 to 100 µM.
Regarding `Cn1nc(C2(C)CCC(=O)NC2=O)c2ccccc21` (stereo not drawn) [Compound 47, 3-Methyl-3-(1-methyl-1H-indazol-3-yl)-piperidine-2,6-dione], the Kd lay within 10 to 50 µM.
On to `Cc1nc(C2CCC(=O)NC2=O)cn1-c1ccccc1` (stereo not drawn) [Compound 46, 3-(2-Methyl-1-phenyl-1H-imidazol-4-yl)-piperidine-2,6-dione], for which the Kd was in the range of 10 to 50 µM.
With `CS(=O)(=O)Nc1ccc(C23CC2C(=O)NC3=O)cc1` (stereo not drawn) [Compound 7, N-(4-(2,4-dioxo-3-azabicyclo[3.1.0]hexan-1-yl)phenyl)methanesulfonamide] the figure was > 100 µM.
To `O=C1NC(=O)C2(c3ccccc3)CC1C2` [Compound 2, 1-Phenyl-3-azabicyclo[3.1.1]heptane-2,4-dione] belongs > 30 µM.
To `COc1ccccc1NC(=O)C1CCC(=O)NC1=O` (stereo not drawn) [Compound 15] belongs 10 to 50 µM; to `Cn1nc([C@H]2CCC(=O)NC2=O)c2ccccc21` [Compound 39], 10 to 50 µM.
Molecule `O=C1CCC(O)(C(=O)OCc2ccccc2)C(=O)N1` (stereo not drawn) [Compound 60, benzyl 3-hydroxy-2,6-dioxopiperidine-3-carboxylate] came in with a Kd of 10 to 50 µM.
